Reference: patent US11008313B2, “Substituted 1-methyl-1,2,3,4-tetrahydroisoquinoline molecules as PCSK9 allosteric binders” (Merck Sharp & Dohme Corp., priority 2016, dated 2021)
pIC50: −log10 of the molar value.

What was measured:
PCSK9 [1] = target: T1, PCSK9 (Homo sapiens, UniProt Q8NBP7); assay: Fluorescence polarization competition binding assay (probe: compound of Example 57); details: 2 μM PCSK9, 50 nM compound of Example 57 as probe, overnight incubation; read-out: FP IC
Method: Relative compound affinities were determined using a competition binding assay with a fluorescence polarization format. Solution (49 μL) containing 2 μM PCSK9 and 50 nM compound of Example 57 in 20 mM HEPES (pH 7.5)/150 mM NaCl/1 mM CaCl2/0.005% P-20 was dispensed to wells of a 384-well black non-binding microplate before the addition of 1 μL of test compound or DMSO. After mixing, the plate was centrifuged and sealed for overnight incubation in the dark. The anisotropy signal was read using a fluorescence polarization protocol on a Perkin-Elmer Envision plate reader. The % inhibition was determined relative to the window defined by the DMSO control wells and wells containing 50 nM probe in the absence of PCSK9.

PCSK9 [2] = target: T1, PCSK9; assay: Differential scanning calorimetry (DSC) assay, direct binding / thermal stabilization of PCSK9; details: Tm(with compound)−Tm(no compound); 2 μM PCSK9, 300 μM test compound
Method: Differential scanning calorimetry (DSC) was used as a biophysical method to confirm direct binding to PCSK9. A solution containing 2 μM PCSK9 with or without 300 μM test compound in 25 mM HEPES (pH 7.5)/150 mM NaCl/1 mM CaCl2/3.75% DMSO was transferred to the sample cell of the DSC instrument, while buffer alone was placed in the reference cell. Both cells were heated at a constant rate (200° C./hr) from 20-80° C. while recording the excess heat capacity of the sample cell relative to the reference cell. Each thermogram was analyzed to provide the melting temperature (Tm) of the protein.
The higher the temperature shift generally, the higher the affinity.

T1 sequence (Q8NBP7 153-692): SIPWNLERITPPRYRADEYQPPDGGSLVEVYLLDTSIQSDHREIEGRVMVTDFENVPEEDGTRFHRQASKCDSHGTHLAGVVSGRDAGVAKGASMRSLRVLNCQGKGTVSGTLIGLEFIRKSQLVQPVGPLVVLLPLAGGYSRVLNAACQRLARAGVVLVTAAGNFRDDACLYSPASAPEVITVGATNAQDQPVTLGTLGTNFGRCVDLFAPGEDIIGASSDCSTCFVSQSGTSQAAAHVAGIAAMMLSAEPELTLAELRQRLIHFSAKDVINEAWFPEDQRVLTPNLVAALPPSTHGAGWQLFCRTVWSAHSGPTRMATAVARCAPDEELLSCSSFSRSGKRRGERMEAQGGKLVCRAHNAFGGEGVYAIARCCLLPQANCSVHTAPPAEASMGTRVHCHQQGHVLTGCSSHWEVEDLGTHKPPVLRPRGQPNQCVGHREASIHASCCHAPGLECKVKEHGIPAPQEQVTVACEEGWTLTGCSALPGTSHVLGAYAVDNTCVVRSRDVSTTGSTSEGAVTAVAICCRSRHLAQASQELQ

| Structure (SMILES) | pIC50 (PCSK9 [1]) | ΔTm at 300 µM (PCSK9 [2]) | DSC ΔTm (PCSK9 [2]) |
| --- | --- | --- | --- |
| C[C@]1(CC(=O)Nc2nccs2)NCCc2cc(OCCn3cc(C(N)CO)nn3)c(Oc3ccc(C(=O)O)c(F)c3)cc21 (stereo partly drawn) [Example 37, 4-(((1R)-6-(2-(4-(1-amino-2-hydroxyethyl)-1H-1,2,3-triazol-1-yl)ethoxy)-1-methyl-1-(2-oxo-2-(thiazol-2-ylamino)ethyl)-1,2,3,4-tetrahydroisoquinolin-7-yl)oxy)-2-fluorobenzoic acid] | 6.21 | 5.63 °C |  |
| COc1cc2c(cc1Oc1ccc(-c3ccc(C(=O)O)cc3F)cc1)[C@@](C)(CC(=O)Nc1nccs1)NCC2 [Example 29, (R)-2-fluoro-4′-((6-methoxy-1-methyl-1-(2-oxo-2-(thiazol-2-ylamino)ethyl)-1,2,3,4-tetrahydroisoquinolin-7-yl)oxy)-[1,1′-biphenyl]-4-carboxylic acid] | 6.38 | 5.37 °C |  |
| C[C@]1(CC(=O)Nc2nccs2)NCCc2cc(OCC3CCCCO3)c(Oc3ccc(C(=O)Nc4n[nH]c5ncccc45)c(F)c3)cc21 (stereo partly drawn) [Example 74, 2-fluoro-4-(((1R)-1-methyl-1-(2-oxo-2-(thiazol-2-ylamino)ethyl)-6-((tetrahydro-2H-pyran-2-yl)methoxy)-1,2,3,4-tetrahydroisoquinolin-7-yl)oxy)-N-(1H-pyrazolo[3,4-b]pyridin-3-yl)benzamide] | 6.10 | 7.08 °C |  |
| COc1cc2c(cc1Oc1cncc(F)c1)[C@@](C)(CC(=O)Nc1nccs1)NCC2 [Example 8, (R)-2-(7-((5-fluoropyridin-3-yl)oxy)-6-methoxy-1-methyl-1,2,3,4-tetrahydroisoquinolin-1-yl)-N-(thiazol-2-yl)acetamide] | 6.12 | 5.44 °C |  |
| C[C@]1(CC(=O)Nc2cccnn2)NCCc2cc(OCC3CCCCO3)c(Oc3ccc(Br)c(F)c3)cc21 (stereo partly drawn) [Example 88, 2-((1R)-7-(4-bromo-3-fluorophenoxy)-1-methyl-6-((tetrahydro-2H-pyran-2-yl)methoxy)-1,2,3,4-tetrahydroisoquinolin-1-yl)-N-(pyridazin-3-yl)acetamide] | 8.80 | 5.51 °C |  |
| C[C@]1(CC(=O)Nc2nccs2)NCCc2cc(OCC3CCCCO3)c(Oc3cccc(F)c3)cc21 (single isomer, unassigned) [Example 80, 2-((1R)-7-(3-fluorophenoxy)-1-methyl-6-(((R or S)-tetrahydro-2H-pyran-2-yl)methoxy)-1,2,3,4-tetrahydroisoquinolin-1-yl)-N-(thiazol-2-yl)acetamide] | 6.26 | 6.09 °C |  |
| C[C@]1(CC(=O)Nc2nccs2)NCCc2cc(OCC3CCCCO3)c(Oc3ccc(C(=O)Nc4n[nH]c5ncccc45)c(F)c3)cc21 (single isomer, unassigned) [Example 75, 2-fluoro-4-(((R)-1-methyl-1-(2-oxo-2-(thiazol-2-ylamino)ethyl)-6-(((R or S)-tetrahydro-2H-pyran-2-yl)methoxy)-1,2,3,4-tetrahydroisoquinolin-7-yl)oxy)-N-(1H-pyrazolo[3,4-b]pyridin-3-yl)benzamide] | 6.39 | 6.18 °C |  |
| COc1cc2c(cc1Oc1ccc(-c3c[nH]c(C(=O)O)c3)c(F)c1)[C@@](C)(CC(=O)Nc1nccs1)NCC2 [Example 14, (R)-4-(2-fluoro-4-((6-methoxy-1-methyl-1-(2-oxo-2-(thiazol-2-ylamino)ethyl)-1,2,3,4-tetrahydroisoquinolin-7-yl)oxy)phenyl)-1H-pyrrole-2-carboxylic acid] | 9.63 | 5.89 °C |  |
| COc1cc2c(cc1Oc1ccc(-c3ccc(C(=O)O)cc3)cc1)[C@@](C)(CC(=O)Nc1nccs1)NCC2 [Example 34, (R)-4′-((6-methoxy-1-methyl-1-(2-oxo-2-(thiazol-2-ylamino)ethyl)-l,2,3,4-tetrahydroisoquinolin-7-yl)oxy)-[1,1′-biphenyl]-4-carboxylic acid] | 6.18 |  | 5.5 °C |
| CC1(CC(=O)Nc2nccs2)NCCc2cc(OCC3CCCCO3)c(-c3ccc(F)c(C(=O)O)c3)cc21 (stereo not drawn) [Example 110, 2-fluoro-5-(1-methyl-1-(2-oxo-2-(thiazol-2-ylamino)ethyl)-6-((tetrahydro-2H-pyran-2-yl)methoxy)-1,2,3,4-tetrahydroisoquinolin-7-yl)benzoic acid] | 9.01 | 6.7 °C |  |
| C[C@]1(CC(=O)Nc2nccs2)NCCc2cc(OCC3CCCO3)c(Oc3ccc(C(=O)O)cc3)cc21 (stereo partly drawn) [Example 67, 4-(((1R)-1-methyl-1-(2-oxo-2-(thiazol-2-ylamino)ethyl)-6-((tetrahydrofuran-2-yl)methoxy)-1,2,3,4-tetrahydroisoquinolin-7-yl)oxy)benzoic acid] | 6.38 | 7.31 °C |  |
| CC(C)(C)c1cc(NC(=O)c2ccc(Oc3cc4c(cc3OCC3CCCCO3)CCN[C@]4(C)CC(=O)Nc3nccs3)cc2F)[nH]n1 (stereo partly drawn) [Example 76, N-(3-(tert-butyl)-1H-pyrazol-5-yl)-2-fluoro-4-(((1R)-1-methyl-1-(2-oxo-2-(thiazol-2-ylamino)ethyl)-6-((tetrahydro-2H-pyran-2-yl)methoxy)-1,2,3,4-tetrahydroisoquinolin-7-yl)oxy)benzamide] | 6.27 | 7.92 °C |  |
| C[C@]1(CC(=O)Nc2nccs2)NCCc2cc(OCCn3cc(C4(C(=O)O)CC4)nn3)c(Oc3ccc(C(=O)O)c(F)c3)cc21 [Example 48, (R)-4-((6-(2-(4-(1-carboxycyclopropyl)-1H-1,2,3-triazol-1-yl)ethoxy)-1-methyl-1-(2-oxo-2-(thiazol-2-ylamino)ethyl)-1,2,3,4-tetrahydroisoquinolin-7-yl)oxy)-2-fluorobenzoic acid] | 6.17 | 6.02 °C |  |
| C[C@]1(CC(=O)Nc2nccs2)NCCc2cc(OCc3ncccn3)c(Oc3ccc(-c4ccc(C(=O)O)cc4)c(F)c3)cc21 [Example 19, (R)-2′-fluoro-4′-((1-methyl-1-(2-oxo-2-(thiazol-2-ylamino)ethyl)-6-(pyrimidin-2-ylmethoxy)-1,2,3,4-tetrahydroisoquinolin-7-yl)oxy)-[1,1′-biphenyl]-4-carboxylic acid] | 6.79 | 9.05 °C |  |
| C[C@]1(CC(=O)Nc2cccc3[nH]ccc23)NCCc2cc(OCC3CCCCO3)c(Oc3ccc(-c4ccc(C(=O)O)cc4)c(F)c3)cc21 (stereo partly drawn) [Example 92, 4′-(((1R)-1-(2-((1H-indol-4-yl)amino)-2-oxoethyl)-1-methyl-6-((tetrahydro-2H-pyran-2-yl)methoxy)-1,2,3,4-tetrahydroisoquinolin-7-yl)oxy)-2′-fluoro-[1,1′-biphenyl]-4-carboxylic acid] | 6.02 | 7.28 °C |  |
| COc1cc2c(cc1Oc1ccc(-c3ccc(CC(=O)O)cc3)cc1)[C@@](C)(CC(=O)Nc1nccs1)NCC2 [Example 36, (R)-2-(4′-((6-methoxy-1-methyl-1-(2-oxo-2-(thiazol-2-ylamino)ethyl)-1,2,3,4-tetrahydroisoquinolin-7-yl)oxy)-[1,1′-biphenyl]-4-yl)acetic acid] | 6.12 | 5.56 °C |  |
| C[C@]1(CC(=O)Nc2nccs2)NCCc2cc(OCC3CCCCO3)c(Oc3ccc(C(=O)Nc4n[nH]c5ncccc45)c(F)c3)cc21 (stereo partly drawn) [Example 78, 2-fluoro-4-(((1R)-1-methyl-1-(2-oxo-2-(thiazol-2-ylamino)ethyl)-6-((tetrahydro-2H-pyran-2-yl)methoxy)-1,2,3,4-tetrahydroisoquinolin-7-yl)oxy)-N-(1H-pyrazolo[3,4-b]pyridin-3-yl)benzamide] | 6.22 |  | 6.67 °C |
| COc1cc2c(cc1Oc1cccc(F)c1)[C@@](C)(CC(=O)Nc1cccc3[nH]ccc13)NCC2 [Example 12, (R)-2-(7-(3-fluorophenoxy)-6-methoxy-1-methyl-1,2,3,4-tetrahydroisoquinolin-1-yl)-N-(1H-indol-4-yl)acetamide] | 6.12 | -0.225 °C |  |
| COc1cc2c(cc1Oc1ccc(-c3ccc(/C=C/C(=O)O)cc3)c(F)c1)[C@@](C)(CC(=O)Nc1nccs1)NCC2 [Example 28, (RE)-3-(2′-fluoro-4′-((6-methoxy-1-methyl-1-(2-oxo-2-(thiazol-2-ylamino)ethyl)-1,2,3,4-tetrahydroisoquinolin-7-yl)oxy)-[1,1′-biphenyl]-4-yl)acrylic acid] | 6.39 | 6.91 °C |  |
| COc1cc2c3cc1Oc1ccc(C(=O)O)c(c1)OC/C=C\CCc1csc(n1)NC(=O)C[C@@]3(C)NCC2 [Example 2, (R,72Z)-36-methoxy-31-methyl-5-oxo-31,32,33,34-tetrahydro-2,13-dioxa-6-aza-7(2,4)-thiazola-3(7,1)-isoquinolina-1(1,3)-benzenacyclotridecaphan-10-ene-14-carboxylic acid] | 5.91 | 6.21 °C |  |
| COc1cc2c(cc1Oc1ccc(-c3ccc(C(=O)O)cc3F)c(F)c1)[C@@](C)(CC(=O)Nc1nccs1)NCC2 [Example 25, (R)-2,2′-difluoro-4′-((6-methoxy-1-methyl-1-(2-oxo-2-(thiazol-2-ylamino)ethyl)-1,2,3,4-tetrahydroisoquinolin-7-yl)oxy)-[1,1′-biphenyl]-4-carboxylic acid] | 6.52 | 6.6 °C |  |
